Here are results for 13 compounds from article PMC6054517, “Design and synthesis of novel oridonin analogues as potent anticancer agents” (Journal of Enzyme Inhibition and Medicinal Chemistry, 2018).

As a reminder, the IC50 is the concentration at which inhibition is half-maximal.

Each structure is given as a SMILES string.

Common to all, as to assay type: cell-based, human
One experiment deals with Bel7402. Briefly: MTT antiproliferative assay, Bel7402 cells. The note with it: Homo sapiens, Bel-7402; MTT, 48 h, means ± SD, n = 3. The text has this: (§1) Human gastric cancer (AGS), human differentiation of advanced gastric cancer (MGC803), human colorectal cancer (HCT116), human lung cancer (A549), human hepatocellular carcinoma (Bel7402) and human cervical cancer (HeLa) cell lines were obtained from the State Key Laboratory of Natural Resources and Functional Molecules of the Changbai Mountain (Yanbian University) and maintained in Dulbecco’s modified Eagle’s medium and RPMI Media 1640 (RPMI1640), supplemented with 10% foetal bovine serum 100 IU/ml penicillin, […] and 2 mmol/l L-glutamine (Sigma) at 37 °7 in a humidified atmosphere containing 5% CO2.
(§2) All six human cancer cell lines and normal L02 cells were seeded in 96-well plates at the appropriate densities to ensure exponential growth throughout the experimental period (9 × 10^3 cells per well) and then allowed to adhere for 24 h. The cells were then treated for 48 h with four serial dilutions (100, 50, 10, and 1 µM) of each compound. 5-Fluorouracil (5-FU) was used as the positive control. After incubation for 48 h, 10 µl MTT solution was added to each well to give a final concentration of 2 mg ml^−1. The plates were then incubated for further 4 h. After incubation, the MTT solution was removed and 150 µl DMSO was added to each well to solubilise the formed product. To ensure complete solubilisation, the plates were shaken vigorously for 10 min at room temperature. The optometric density (OD) was read on a microplate reader (ELx800, BioTek, Highland Park, Winooski, VT) at a wavelength of 492 nm and the data were subsequently analysed. The percentage of cell growth inhibition was calculated from the following equation: inhibitory rate (%) = [1–(ODtreated–ODblank)/(ODcontrol–ODblank)] × 100.
(§3) The MTT assay was performed using a standard protocol.

The subject of another experiment is MGC803. Briefly: MTT antiproliferative assay, MGC803 cells. The note with it: Homo sapiens, MGC-803; MTT, 48 h, means ± SD, n = 3.
Excerpt: as §1, §2, §3
On the technique in general: Tetrazolium dyes change colour on reduction, which living cells bring about.

The subject of the next experiment is HCT116. Briefly: MTT antiproliferative assay, HCT116 cells. As to conditions: MTT, 48 h, means ± SD, n = 3.
Excerpt: as §1, §2, §3

Another experiment concerns AGS. Briefly: MTT antiproliferative assay, AGS cells. The note with it: Homo sapiens, AGS, 48 h, MTT, means ± SD, n = 3.
Excerpt: as §1, §2, §3

The test system of a further experiment is Hela. Briefly: MTT antiproliferative assay, HeLa cells. As to conditions: Homo sapiens, HeLa; MTT, 48 h, means ± SD, n = 3.
Excerpt: as §1, §2, §3

The next experiment relates to A549. Briefly: MTT antiproliferative assay, A549 cells. As to conditions: Homo sapiens, A549; MTT, 48 h, means ± SD, n = 3.
Excerpt: as §1, §2, §3

Regarding `CC1(C)CCC(O)C23COC(O)(C(O)C12)C12C(=O)C(=Cc4ccccc4)C(CCC31)C2O` [Compound 2a, (1S,4aR,5S,6S,6aR,9S,11aS,14R,E)-8-benzylidene-1,5,6,14-tetrahydroxy-4,4-dimethyldecahydro-1H-6,11b-(epoxymethano)-6a,9-methanocyclohepta[a]naphthale-n-7(8H)-one], the IC50 in the experiment on Bel7402 is 4.97 ± 0.56 µM; with MGC803 it was 9.13 ± 0.82 µM; in the experiment on HCT116 (Homo sapiens, HCT-116, 48 h) it was 47.1 ± 4.32 µM; with AGS, over 100 µM; with Hela, over 100 µM; in the experiment on A549, over 100 µM.

As for `CC1(C)CCC(O)C23COC(O)(C(O)C12)C12C(=O)C(=Cc4cccc(F)c4)C(CCC31)C2O` [Compound 2b, (1S,4aR,5S,6S,6aR,9S,11aS,14R,E)-8-(3-fluorobenzylidene)-1,5,6,14-tetrahydroxy-4,4-dimethyldecahydro-1H-6,11b-(epoxymethano)-6a,9-methanocyclohepta[a]n-aphthalen-7(8H)-one], the 50% inhibitory concentration (IC50) in the experiment with Bel7402 was over 100 µM; with MGC803 it was 23.6 ± 1.48 µM; with HCT116 (Homo sapiens, HCT-116, 48 h), 36.6 ± 2.43 µM; in the experiment with AGS it was 13.9 ± 1.5 µM; with Hela, over 100 µM; with A549, 47.4 ± 3.49 µM.

For `CC1(C)CCC(O)C23COC(O)(C(O)C12)C12C(=O)C(=Cc4ccc(F)cc4)C(CCC31)C2O` [Compound 2c, (1S,4aR,5S,6S,6aR,9S,11aS,14R,E)-8-(4-fluorobenzylidene)-1,5,6,14-tetrahydroxy-4,4-dimethyldecahydro-1H-6,11b-(epoxymethano)-6a,9-methanocyclohepta[a]n-aphthalen-7(8H)-one], the IC50 in the experiment with Bel7402 was 12.6 ± 1.05 µM; in the experiment with MGC803 it was over 100 µM; in the experiment on HCT116 (Homo sapiens, HCT-116, 48 h) it was 10.2 ± 1.12 µM; in the experiment on AGS, 14.3 ± 2.43 µM; in the experiment with Hela, over 100 µM; in the experiment on A549 it was 59.6 ± 4.75 µM.

On to `CC1(C)CCC(O)C23COC(O)(C(O)C12)C12C(=O)C(=Cc4cccc(Cl)c4)C(CCC31)C2O` [Compound 2d, (1S,4aR,5S,6S,6aR,9S,11aS,14R,E)-8-(3-chlorobenzylidene)-1,5,6,14-tetrahydrox-y-4,4-dimethyldecahydro-1H-6,11b-(epoxymethano)-6a,9-methanocyclohepta[a]-naphthalen-7(8H)-one], for which the IC50 amounted to 16.9 ± 1.3 µM in the experiment on Bel7402; 2.13 ± 0.13 µM in the experiment on MGC803; 19.8 ± 3.19 µM in the experiment with HCT116 (Homo sapiens, HCT-116, 48 h); 14.1 ± 1.65 µM with AGS; 15.2 ± 1.47 µM with Hela; 12.7 ± 1.56 µM in the experiment with A549.

Consider `CC1(C)CC[C@H](O)C23CO[C@](O)([C@@H](O)[C@H]12)[C@]12C(=O)/C(=C/c4ccc(Cl)cc4)[C@H](CC[C@@H]31)[C@H]2O` [Compound 2e, (1S,4aR,5S,6S,6aR,9S,11aS,14R,E)-8-(4-chlorobenzylidene)-1,5,6,14-tetrahydroxy-4,4-dimethyldecahydro-1H-6,11b-(epoxymethano)-6a,9-methanocyclohepta[a]-naphthalen-7(8H)-one], for which the IC50 in the experiment with Bel7402 was 9.66 ± 1.15 µM; with MGC803, 7.27 ± 0.74 µM; in the experiment on HCT116 (Homo sapiens, HCT-116, 48 h), 14 ± 1.94 µM; in the experiment with AGS, 15.3 ± 1.78 µM; in the experiment on Hela it was over 100 µM; with A549, 23.1 ± 3.63 µM.

In the case of `Cc1ccccc1/C=C1/C(=O)[C@]23[C@H](O)[C@H]1CC[C@H]2C12CO[C@]3(O)[C@@H](O)[C@@H]1C(C)(C)CC[C@@H]2O` [Compound 2f, (1S,4aR,5S,6S,6aR,9S,11aS,14R,E)-1,5,6,14-tetrahydroxy-4,4-dimethyl-8-(2-methylbenzylidene)decahydro-1H-6,11b-(epoxymethano)-6a,9-methanocyclohepta[a]-naphthalen-7(8H)-one], the half-maximal inhibitory concentration (IC50) was over 100 µM in the experiment on Bel7402; 22.8 ± 1.25 µM with MGC803; 59 ± 3.37 µM in the experiment on HCT116 (Homo sapiens, HCT-116, 48 h); over 100 µM in the experiment with AGS; over 100 µM in the experiment on Hela; over 100 µM in the experiment on A549.

For the compound `Cc1cccc(/C=C2/C(=O)[C@]34[C@H](O)[C@H]2CC[C@H]3C23CO[C@]4(O)[C@@H](O)[C@@H]2C(C)(C)CC[C@@H]3O)c1` [Compound 2g, (1S,4aR,5S,6S,6aR,9S,11aS,14R,E)-1,5,6,14-tetrahydroxy-4,4-dimethyl-8-(3-methylbenzylidene)decahydro-1H-6,11b-(epoxymethano)-6a,9-methanocyclohepta[a]naphthalen-7(8H)-one], the concentration for half-maximal inhibition (IC50) in the experiment on Bel7402 is 24.2 ± 2.27 µM; with MGC803, 17.7 ± 1.13 µM; with HCT116 (Homo sapiens, HCT-116, 48 h), 14.2 ± 1.31 µM; in the experiment with AGS it was 10.8 ± 2.39 µM; with Hela it was 22.3 ± 1.92 µM; in the experiment on A549 it was 66.9 ± 5.29 µM.

As to `Cc1ccc(/C=C2/C(=O)[C@]34[C@H](O)[C@H]2CC[C@H]3C23CO[C@]4(O)[C@@H](O)[C@@H]2C(C)(C)CC[C@@H]3O)cc1` [Compound 2h, (1S,4aR,5S,6S,6aR,9S,11aS,14R,E)-1,5,6,14-tetrahydroxy-4,4-dimethyl-8-(4-methylbenzylidene)decahydro-1H-6,11b-(epoxymethano)-6a,9-methanocyclohepta[a]naphthalen-7(8H)-one], the concentration for half-maximal inhibition (IC50) in the experiment with Bel7402 amounted to 11.3 ± 0.98 µM; in the experiment on MGC803, 27.2 ± 2.38 µM; in the experiment with HCT116 (Homo sapiens, HCT-116, 48 h) it was 10.1 ± 1.39 µM; in the experiment on AGS, 5.26 ± 1.09 µM; in the experiment on Hela, 28.7 ± 2.13 µM; with A549, 18 ± 1.49 µM.

For `COc1ccccc1/C=C1/C(=O)[C@]23[C@H](O)[C@H]1CC[C@H]2C12CO[C@]3(O)[C@@H](O)[C@@H]1C(C)(C)CC[C@@H]2O` [Compound 2j, (1S,4aR,5S,6S,6aR,9S,11aS,14R,E)-1,5,6,14-tetrahydroxy-8-(2-methoxybenzylidene)-4,4-dimethyldecahydro-1H-6,11b-(epoxymethano)-6a,9-methanocyclohepta-[a]naphthalen-7(8H)-one], the concentration for half-maximal inhibition (IC50) is 3.56 ± 0.52 µM in the experiment on Bel7402; 10.4 ± 1.29 µM in the experiment with MGC803; 5.08 µM with HCT116 (Homo sapiens, HCT-116, 48 h); 5.48 ± 0.64 µM with HCT116; 2.87 ± 0.58 µM with AGS; 24.7 ± 2.08 µM in the experiment with Hela. Besides, it took 7.89 ± 0.99 µM to reach half-maximal inhibition in the experiment on A549 (IC50).

`COc1ccc(/C=C2/C(=O)[C@]34[C@H](O)[C@H]2CC[C@H]3C23CO[C@]4(O)[C@@H](O)[C@@H]2C(C)(C)CC[C@@H]3O)cc1` [Compound 2k, (1S,4aR,5S,6S,6aR,9S,11aS,14R,E)-1,5,6,14-tetrahydroxy-8-(4-methoxybenzylidene)-4,4-dimethyldecahydro-1H-6,11b-(epoxymethano)-6a,9-methanocyclohepta-[a]naphthalen-7(8H)-one]: the half-inhibitory concentration (IC50) with Bel7402 was 4.52 ± 0.46 µM; in the experiment on MGC803, 2.79 ± 0.38 µM; in the experiment with HCT116 (Homo sapiens, HCT-116, 48 h), 2.99 ± 0.32 µM; in the experiment on AGS it was 2.91 ± 0.42 µM; in the experiment with Hela it was 68.8 ± 5.32 µM; with A549, 16.8 ± 2.51 µM.

Regarding `COc1ccc(/C=C2/C(=O)[C@]34[C@H](O)[C@H]2CC[C@H]3C23CO[C@]4(O)[C@@H](O)[C@@H]2C(C)(C)CC[C@@H]3O)cc1OC` [Compound 2m, (1S,4aR,5S,6S,6aR,9S,11aS,14R,E)-8-(3,4-dimethoxybenzylidene)-1,5,6,14-tetrahydroxy-4,4-dimethyldecahydro-1H-6,11b-(epoxymethano)-6a,9-methanocyclohepta[a]naphthalen-7(8H)-one], the half-maximal inhibitory concentration (IC50) with Bel7402 worked out at 3.15 ± 0.64 µM; with MGC803, 17.7 ± 1.67 µM; in the experiment with HCT116 (Homo sapiens, HCT-116, 48 h), 11.1 ± 1.83 µM; in the experiment on AGS, 17.6 ± 2.32 µM; in the experiment on Hela it was 30.7 ± 2.9 µM; with A549, 13.6 ± 1.89 µM.

Consider `COc1cc(/C=C2/C(=O)[C@]34[C@H](O)[C@H]2CC[C@H]3C23CO[C@]4(O)[C@@H](O)[C@@H]2C(C)(C)CC[C@@H]3O)cc(OC)c1OC` [Compound 2n, (1S,4aR,5S,6S,6aR,9S,11aS,14R,E)-1,5,6,14-tetrahydroxy-4,4-dimethyl-8-(3,4,5-trimethoxybenzylidene)decahydro-1H-6,11b-(epoxymethano)-6a,9-methanocyclo-hepta[a]naphthalen-7(8H)-one], for which the IC50 in the experiment on Bel7402 was found to be 14.6 ± 1.21 µM; with MGC803, 28 ± 1.73 µM; in the experiment with HCT116 (Homo sapiens, HCT-116, 48 h), 18.6 ± 1.78 µM; in the experiment with AGS, 17.3 ± 2.41 µM; in the experiment with Hela, 8.89 ± 0.94 µM; with A549, 15.8 ± 1.47 µM.

Consider `CCCOc1ccc(/C=C2/C(=O)[C@]34[C@H](O)[C@H]2CC[C@H]3C23CO[C@]4(O)[C@@H](O)[C@@H]2C(C)(C)CC[C@@H]3O)cc1` [Compound 2o, (1S,4aR,5S,6S,6aR,9S,11aS,14R,E)-1,5,6,14-tetrahydroxy-4,4-dimethyl-8-(4-propoxybenzylidene)decahydro-1H-6,11b-(epoxymethano)-6a,9-methanocyclohepta-[a]naphthalen-7(8H)-one], for which the IC50 with Bel7402 amounted to 6.54 ± 0.94 µM; in the experiment with MGC803 it was 10.9 ± 1.39 µM; in the experiment with HCT116 (Homo sapiens, HCT-116, 48 h) it was 3.09 ± 0.41 µM; with AGS it was 10 ± 1.88 µM; with Hela it was 8.21 ± 1.2 µM; in the experiment with A549, 15.3 ± 1.31 µM.
